Data taken from patent US7601713B2, “Kinase inhibitors and their uses” (Rigel Pharmaceuticals, Inc., priority 2005, dated 2009).
Like-named read-outs stand apart in the source and are kept apart here.

Columns and labels:
Syk kinase = Syk kinase (Homo sapiens, UniProt P43405); assay: cell-based Syk assay; settings: read-out: IC50, inhibition of Syk kinase
[1] = system: JAK kinases (JAK1 and JAK3); assay: JAK inhibition: IL-4-stimulated CD23 upregulation in human Ramos B-cells, FACS; format: cell-based; settings: IL-4 stimulated Ramos B-cells, read-out: IC50, inhibition of JAK kinases in cellular assay
Protocol: JAK inhibition was tested in human Ramos B-cells activated with IL-4. Twenty to 24 hours post stimulation, the cells are stained for upregulation of CD23 and analyzed by FACS. Stimulation of the B-cells with IL-4 leads to the activation of the JAK/STAT pathway through phosphorylation of the JAK kinase JAK1 and JAK3, which in turn phosphorylate and activate transcription of factor […].
For the assay, human Ramos B-cells (ATCC, Catalog No. CRL-1596) are cultured in RPMI 1640 medium (Cellgro, Catalog No. 10-040-CM) containing 10% fetal bovine serum (JRH, Catalog No. 12106-500M) according to the propagation protocol supplied with the cells, and maintained at a density of approximately 3.5×10^5 cells/ml. The day before the assay, the cells are diluted to 3.5×10^5 cells/ml to insure they are in the logarithmic growth phase. The cells are spun down, and suspended in RPMI 1640 medium containing 5% fetal bovine serum to a density of 3.5×10^4 cells/ml and aliquots dispensed into a 96-well tissue culture plate. Cells are incubated with test compound (dissolved in DMSO) or DMSO (control) for 1 hr at 37° C. and then stimulated with IL-4 (Pepotech, Catalog No. 200-04) for 20-24 hours (final concentration is 50 Units/ml). Cells are then spun down, stained with anti-CD23-PE antibody (BD Pharmigen, Catalog No. 555711) and analyzed by FACS.

Axl kinase = target: T1, Axl kinase (Homo sapiens, UniProt P30530); assay: Phospho-Akt in-cell Western assay (Axl antibody cross-linking, Hela cells); format: cell-based; settings: phospho-Akt readout, read-out: IC50, inhibition of Axl kinase
T1 construct: endogenous in cells; host or cells: HeLa cells
T1 sequence (P30530 26-894): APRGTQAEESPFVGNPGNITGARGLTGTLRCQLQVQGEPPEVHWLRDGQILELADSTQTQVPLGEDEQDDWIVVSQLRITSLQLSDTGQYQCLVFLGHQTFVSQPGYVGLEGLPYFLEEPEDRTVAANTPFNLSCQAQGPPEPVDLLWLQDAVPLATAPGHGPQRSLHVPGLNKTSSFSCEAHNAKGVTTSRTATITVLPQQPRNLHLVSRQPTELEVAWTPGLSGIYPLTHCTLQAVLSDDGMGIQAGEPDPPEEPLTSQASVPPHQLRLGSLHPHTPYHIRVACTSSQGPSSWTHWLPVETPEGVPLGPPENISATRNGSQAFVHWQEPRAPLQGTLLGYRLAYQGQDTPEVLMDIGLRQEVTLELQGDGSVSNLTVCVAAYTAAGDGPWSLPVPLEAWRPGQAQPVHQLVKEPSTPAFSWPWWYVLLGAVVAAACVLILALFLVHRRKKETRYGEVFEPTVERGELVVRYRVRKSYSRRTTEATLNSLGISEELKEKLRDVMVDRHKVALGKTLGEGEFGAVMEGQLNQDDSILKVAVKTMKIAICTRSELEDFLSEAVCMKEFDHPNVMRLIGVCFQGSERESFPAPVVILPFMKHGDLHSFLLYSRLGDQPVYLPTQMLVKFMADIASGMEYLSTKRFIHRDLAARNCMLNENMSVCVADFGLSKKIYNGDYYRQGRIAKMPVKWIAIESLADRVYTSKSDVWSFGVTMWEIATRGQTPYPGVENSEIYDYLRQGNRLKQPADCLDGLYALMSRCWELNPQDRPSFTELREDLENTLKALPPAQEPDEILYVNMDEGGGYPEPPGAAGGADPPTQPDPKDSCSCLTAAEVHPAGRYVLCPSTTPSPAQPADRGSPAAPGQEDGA
Protocol: The compounds of the invention were tested in the following assay for their ability to inhibit Axl activity.
Phospho-Akt in-Cell Western Assay
Starvation medium: For Axl stimulation: 0.5% FCS (fetal calf serum) in DMEM, plus Axl/Fc (extracellular domain of AXL fused to immunoglobulin Fc region) (R&D, 154-AL) 500 ng/mL.
Axl antibody cross-linking: • 1st: Mouse anti-Axl (R&D, MAB 154). • 2nd: Biotin-SP-conjugated AffiniPure goat anti-mouse IgG (H+L) (Jackson ImmunoResearch #115-065-003).
Primary antibody: Rabbit anti-human Phospho-Akt antibody (Cell Signaling 9271): 1×250 diluted in blocking buffer.
Secondary antibody: HRP (horse radish peroxidase)-conjugated Goat anti-Rabbit secondary, stock solution: Jackson lmmunoResearch (Goat anti-Rabbit HRP, #111-035-144) 1:1 diluted in glycerol, store at −20° C. The working solution: 1×2000 dilution of stock in blocking buffer.
A 96 well TC (tissue culture treated) plate was coated with 10 μg/mL poly-L-Lysine at 37° C. for 30 min, washed twice with PBS, and air-dried for 5 minutes before cells were added. Hela cells were seeded at 10,000 cells/well and the cells were starved in 100 μL starvation medium containing Axl/Fc for 24 hrs.
The cells were pre-treated with test compounds by adding 100 μL of 2× test compound to the starvation medium on the cells. The cells were incubated at 37° C. for 1 hr before stimulation.
The cells were stimulated by Axl-antibody cross-linking as follows: A 5× 1st/2nd Axl antibody mixture was made (37.5 μg/mL 1st/100 μg/mL 2nd) in starvation medium and nutated at 4° C. with thorough mixing for 1-2 hours for clustering. The resulting mix was warmed to 37° C. 50 μL of 5× Axl 1st/2nd of antibody cluster was added to the cells and the cells were incubated at 37° C. for 5 min.
After 5 minutes stimulation, the plate was flicked to remove medium and the plate was tapped onto paper towels. Formaldehyde (4.0% in PBS, 100 μL) was added to fix the cells and the cells were incubated at ambient temperature for 20 min without shaking.
The cells were washed with a plate washer buffer to remove the formaldehyde solution. The plate was flicked to remove excess wash buffer and tapped onto paper towels. Quenching buffer (100 μL) was added to each well and the cells were incubated at ambient temperature for 20 minutes without shaking.
The cells were washed with a plate washer buffer to remove the quenching buffer. Blocking buffer (100 μL) was added and the cells were incubated at ambient temperature for at least an hour with gentle shaking.
The cells were washed with a plate washer buffer and diluted primary antibody (50 μL) was added to each well (blocking buffer was added to the negative control wells instead). The plates were incubated overnight at 4° C. with gentle shaking.
The wash buffer was removed, diluted secondary antibody (100 μL) was added, and the cells were incubated at ambient temperature for 1 hour with gentle shaking. During the incubation, the chemiluminescent reagent was brought to ambient temperature.
The secondary antibody was removed by washing the cells 1× with wash buffer, 1× with PBS by plate washer. The PBS was removed from the plate and the chemiluminescent reagent (80 μL: 40 μL A and 40 μL B) was added to each well at ambient temperature.
The resulting chemiluminescence was read with a Luminomitor within 10 minutes to minimize changes in signal intensity. After reading the chemiluminescence, the cells were washed 1× with wash buffer and 1× with PBS by plate washer. The plate was tapped onto paper towels to remove excess liquid from wells and air-dried at ambient temperature for 5 minutes.
Crystal Violet working solution (60 μL) was added to each well and the cells were incubated at ambient temperature for 30 min. The crystal violet solution was removed, and the wells were rinsed with PBS, then washed 3× with PBS (200 μL) for 5 minutes each.
5% SDS solution (70 μL) was added to each well and the cells were incubated on a shaker for 30 min at ambient temperature. […]

tumor cell lines = settings: cited from earlier work; for antiproliferative activity against tumor cell types: in vitro assays, variety of tumor cell lines

Row | Compound | IC50 (Syk kinase) | IC50 [1] | IC50 (Axl kinase) | also measured
1 | CN(C)C(=O)C1C2C=CC(C2)C1Nc1nc(Nc2cccc(S(N)(=O)=O)c2)nc2[nH]cnc12 (racemic) [Compound 144] | < 10 µM | < 5 µM |  | 
2 | CSc1cccc(Nc2nc(NC3C4C=CC(C4)C3C(=O)N(C)C)c3nc[nH]c3n2)c1 (racemic) [Compound 143] | < 10 µM | < 5 µM |  | 
3 | COc1cccc(Nc2nc(NC3C4CCC(C4)C3C(=O)NN)c3cc[nH]c3n2)c1 (racemic) [Compound 231, Racemic-(2-exo,3-exo)-N4-(3-hydrazidebicyclo[2.2. 1]hept-2-yl)-N2-(3-methoxyphenyl)-1H-pyrrolo[2,3-d]pyrimidine-2,4-diamine] | < 5 µM | < 5 µM | < 10 µM | 
4 | Cc1cccc(Nc2nc(NC3C4C=CC(C4)C3C(=O)N(C)C)c3nc[nH]c3n2)c1 (racemic) [Compound 141] | < 10 µM | < 5 µM |  | 
5 | Cc1cc(Nc2ncc(F)c(NC3C4C=CC(C4)C3C(N)=O)n2)ccc1N1CCN(C)CC1 (racemic) [cis exo-exo racemate, N4-(3-aminocarbonylbicyclo [2.2.1]hept-5-en-2-yl)-5-fluoro-N2-[3-methyl-4-(4-methylpiperazin-1-yl)phenyl]-2,4-pyrimidinediamine] |  |  |  | potency of exo-exo racemate relative to endo-endo racemate (tumor cell lines; all cell lines tested): approximately twenty-fold; antiproliferative activity against tumor cell types (tumor cell lines): exhibit antiproliferative activity
6 | NC(=O)C1C2CC(C1Nc1nc(Nc3ccc(N4CCOCC4)cc3)nc3[nH]ccc13)C1ON=C(c3ccccc3)C21 (racemic) [Compound 219, Racemic-(5-exo,6-exo)-N4-(4,7-methano-1,2-benzisoxazol-3a,4,5,6,7,7a-hexahydro-3-phenyl-5-aminocarbonyl-6-yl)-N2-[4-(4-morpholinyl)phenyl]-1H-pyrrolo[2,3-d]pyrimidine-2,4-diamine] | > 10 µM | < 10 µM | > 10 µM | 
7 | CC(C)Oc1cccc(Nc2nc(NC3C4C=CC(C4)C3C(=O)N(C)C)c3nc[nH]c3n2)c1 (racemic) [Compound 140] | > 10 µM | < 5 µM |  | 
8 | CN(C)C(=O)C1C2C=CC(C2)C1Nc1nc(Nc2ccc(N3CCCCC3)cc2)nc2[nH]cnc12 (racemic) [Compound 145] | < 10 µM | < 5 µM |  | 
9 | COc1cc(Nc2nc(NC3C4C=CC(C4)C3C(N)=O)c3scc(C)c3n2)cc(OC)c1OC (racemic) [Compound 238] | > 10 µM | < 5 µM | > 10 µM | 
10 | COc1cccc(Nc2nc(NC3C4C=CC(C4)C3C(=O)N(C)C)c3nc[nH]c3n2)c1 (racemic) [Compound 142] | < 10 µM | > 10 µM |  | 
11 | Cc1cc(Nc2ncc(F)c(NC3CCCC3C(N)=O)n2)ccc1N1CCN(C)CC1 [trans (1S,2S) diastereomer, N4-(2-aminocarbonylcyclopent-1-yl)-5-fluoro-N2-[4-(4-methylpiperazin-1-yl)-3-methylphenyl]-2,4-pyrimidinediamine] |  |  |  | antiproliferative activity against tumor cell types (tumor cell lines): relatively inactive; antiproliferative activity against tumor cell types (tumor cell lines; listed as trans(1S,2S)): relatively inactive
12 | Cc1cc(Nc2ncc(F)c(NC3C4C=CC(C4)C3C(N)=O)n2)ccc1N1CCN(C)CC1 [(1S,2S,3R,4R) diastereomer, N4-(3-aminocarbonylbicyclo [2.2.1]hept-5-en-2-yl)-5-fluoro-N2-[3-methyl-4-(4-methylpiperazin-1-yl)phenyl]-2,4-pyrimidinediamine] |  |  |  | IC50s against tumor cell lines (tumor cell lines; isolated stereoisomers): micromolar range
13 | Cc1csc2c(NC3C4C=CC(C4)C3C(N)=O)nc(Nc3ccc4[nH]ccc4c3)nc12 (racemic) [Compound 239, Racemic-(2-exo,3-aminocarbonylbicyclo [2.2.1]hept-5-en-2-yl)-N2-[1H-indol-5-yl]-thieno[3,2-d]pyrimidine-2,4-diamine] | < 5 µM | < 5 µM | > 10 µM | 
14 | CNC(=O)COc1cccc(Nc2nc(N[C@H]3[C@@H](C(N)=O)[C@@H]4C=C[C@H]3C4)c3nc[nH]c3n2)c1 [Compound 110] | < 10 µM |  |  | IC50 ([1]; unit printed MM): < 10 µM
15 | CN(C)C(=O)C1C2C=CC(C2)C1Nc1nc(Nc2ccc(Cc3ccncc3)cc2)nc2[nH]cnc12 (racemic) [Compound 146] | < 10 µM | < 5 µM |  | 
16 | COc1ccc(Nc2nc(NC3C4C=CC(C4)C3C(N)=O)c3scc(C)c3n2)cc1 (racemic) [Compound 237, Racemic-(2-exo,3-exo-)-7-methyl-N4-(3-aminocarbonylbicyclo [2.2.1]hept-5-en-2-yl)-N2-[4-methoxyphenyl]-thieno[3,2-d]pyrimidine-2,4-diamine] | > 10 µM | < 5 µM | > 10 µM | 
